Measured values from US10105344B2, “Methods of reducing blood lactate concentration” (Stokely-Van Camp, Inc., priority 2010, dated 2018).

What was measured:
[1] = system: C2C12 cells; experiment: Muscle cell assay: lactate concentration in C2C12 cells after electrical pulse stimulation; assay type: cell-based, Mouse
Experimental: Mouse C2C12 myoblasts are purchased from American Type Culture Collection (ATCC; Manassas, Va.) and grown to 90% confluence in high glucose Dubecco's Modified Eagle media (DMEM) with 10% fetal bovine serum (FBS). Myoblasts from the purchased lot are grown in T75 flasks and subcultured >5 times prior to plating in collagen coated six-well plates for experimentation. To induce myotube differentiation FBS containing media is replaced with 2% horse serum containing media or serum free media for 5-7 days. Myoblasts are grown and myotubes are maintained with or without antibiotics in a 37° C., 5% CO2 incubator. Electrical pulsing is applied to the myotubes using a C-Pace EP Cell Culture Stimulator (IonOptix; Milton, Mass.). […] Immediately prior to stimulation, day old media is removed and replaced with 5 ml of fresh differentiation media. For incubation experiments, differentiated myotubes are pre-treated with quercetin and/or other compounds. Approximately 18 hours prior and again immediately before electrical pulse stimulation, DMEM containing 2% horse serum or serum free media is replaced with the same media containing quercetin or other test compounds at varying concentrations. Samples from media from resting and contracted cells (with and without compound incubation) is analyzed enzymatically for lactate with a modified method of Lowry and Passonneau (A Flexible System of Enzymatic Analysis, pages 194-199, Academic Press, INC. 1972 hereby incorporated by reference in its entirety.) The effect of quercetin on lactate concentration of muscle cells subjected to electrical pulse stimulation as generally described in Example 1 and Example 2 was studied. […] Media was changed every 24 hours. After 48 hours, growth media was replaced with AIM 5 differentiation media which was also changed every 24 hours. […] Lactate concentrations were measured with the Enzychrom L-Lactate Kit as follows. […] The optical density (OD0) was read for time “zero” at 565 nm and OD20 after a […] incubation at room temperature.

[2] = system: trained cyclists; experiment: Onset of blood lactate accumulation (OBLA) test, incremental cycling exercise; assay type: in vivo
Experimental: Two tests were performed to determine whether quercetin lowers blood lactate or improves maximal lactate steady state: a VO2PEAK test and an onset of blood lactate accumulation [OBLA] test. These tests were performed in a laboratory maintained at 20-25° C. and 35-40% relative humidity with the participants exercising on a Velotron bicycle trainer (Velotron Pro, RacerMate Inc, Seattle, Wash.) calibrated according to manufacturer's recommendations. VO2PEAK was determined using an incremental multistage cycling protocol: following a 10-min warm-up at 100 W, participants cycled at 150 W for five minutes then power output was increased by 50 W every three minutes until 250 W after which power output was increased by 25 W every minute until volitional exhaustion. Oxygen consumption (VO2) and carbon dioxide production (VCO2) were computed from expiratory gases collected and analyzed with a MOXUS metabolic cart (AEI Technologies, Pittsburgh, Pa.). OBLA was determined on a second occasion, separated from the measurement of VO2PEAK by at least seven days. The participants exercised for 3.5 minute stages at 55, 60, 65, 70, 75, 80, 85, and 90% VO2PEAK, and 3-mL blood samples were collected during the final 30 sec of each stage for measuring blood lactate concentration, OBLA was determined using curve fitting techniques and expressed as a percentage of VO2PEAK. OBLA was determined before and after 28 days of quercetin supplementation (1000 mg/d) contained in a 2% carbohydrate beverage with electrolytes and vitamins C and B3.

## O=c1c(O)c(-c2ccc(O)c(O)c2)oc2cc(O)cc(O)c12 [quercetin]
[1]; plate C (primed days 3 and 4, quercetin days 3, 4, 5) vs plate A without quercetin, 60 minutes low intensity stimulation (10V/0.5 hz/24 ms), FIG. 5
  day 5 lactate concentration post stimulus: lower day 5 lactate concentration post stimulus
[1]; plate D (primed days 3 and 4, quercetin days 3, 4, 5) vs plate B without quercetin, 60 minutes high intensity stimulation (10V/4 hz/2 ms), FIG. 6
  day 5 lactate concentration post stimulus: lower day 5 lactate concentration post stimulus
[1]; plate E (no priming, quercetin day 5 only) vs plate F without quercetin, 60 minutes high intensity stimulation (10V/4 hz/2 ms), FIG. 7
  day 5 lactate concentration post stimulus: lower day 5 lactate concentration post stimulus
[2]; after quercetin administration vs before, FIG. 1
  improvement of the % VO2 Peak where the cyclist achieved a blood lactate concentration of 4 mmol: about 3%
[2]; after quercetin administration, about 71% before, FIG. 1
  % VO2 Peak to achieve a 4 mmol blood lactate concentration: about 73%
[2]; endurance cyclists, after 28 days of quercetin administration (1000 mg/d), 244 W before
  cycling power output required to elicit a 4 mmol blood lactate: 250 W
[2]; endurance cyclists, before vs after 28 days of quercetin administration (1000 mg/d), FIG. 1
  increase in cycling power output required to elicit a 4 mmol blood lactate: 6 watts (W)
